The record followed here is ChEMBL document CHEMBL4393691, “Design, synthesis and antitumor evaluation of novel celastrol derivatives” (Eur J Med Chem, 2019).

The subject of experiment [1] is A549. In words: Cell cycle arrest in human A549 cells assessed as accumulation at G0/G1 phase by propidium iodide staining based flow cytometric analysis. The class given is functional.
For another experiment, the system named is HepG2. In words: Cytotoxicity against human HepG2 cells assessed as reduction in cell viability incubated for 48 hrs by MTT assay. The class given is functional, cell-based. The settings on record: HepG2, 48 h.
In experiment [2] the test system is A549. In words: Induction of apoptosis in human A549 cells assessed as decrease in Cdk4 expression incubated for 8 hrs by western blot analysis. The class given is functional, cell-based.
Experiment [3] relates to A549. As to the kind of experiment: Induction of apoptosis in human A549 cells assessed as increase in BAX expression incubated for 8 hrs by western blot analysis. The class given is functional, cell-based.
Experiment [4] relates to A549. As to the kind of experiment: Induction of apoptosis in human A549 cells assessed as increase in caspase-3 expression incubated for 8 hrs by western blot analysis. It counts as functional, cell-based.
Experiment [5] concerns A549. As to the kind of experiment: Cell cycle arrest in human A549 cells assessed as accumulation at G1 phase at 0.06 uM incubated for 12 hrs by propidium iodide staining based flow cytometry analysis (Rvb=49.49%). It counts as functional.
Experiment [6] relates to A549. In words: Cell cycle arrest in human A549 cells assessed as accumulation at G2 phase at 0.06 uM incubated for 12 hrs by propidium iodide staining based flow cytometry analysis (Rvb=11.7%). The class given is functional.
Experiment [7] relates to A549. As to the kind of experiment: Cell cycle arrest in human A549 cells assessed as accumulation at G2 phase at 0.18 uM incubated for 12 hrs by propidium iodide staining based flow cytometry analysis (Rvb=11.7%). The class given is functional.
Experiment [8] deals with A549. As to the kind of experiment: Cell cycle arrest in human A549 cells assessed as accumulation at S phase at 0.27 uM incubated for 12 hrs by propidium iodide staining based flow cytometry analysis (Rvb=38.46%). It counts as functional.
Experiment [9] concerns A549. In words: Cell cycle arrest in human A549 cells assessed as accumulation at G2 phase at 0.06 uM incubated for 24 hrs by propidium iodide staining based flow cytometry analysis (Rvb=18.01%). The class given is functional.
The test system of experiment [10] is A549. As to the kind of experiment: Cell cycle arrest in human A549 cells assessed as accumulation at G1 phase at 0.18 uM incubated for 24 hrs by propidium iodide staining based flow cytometry analysis (Rvb=55.3%). It counts as functional.
Experiment [11] deals with A549. As to the kind of experiment: Cell cycle arrest in human A549 cells assessed as accumulation at G1 phase at 0.27 uM incubated for 24 hrs by propidium iodide staining based flow cytometry analysis (Rvb=55.3%). The class given is functional.
Experiment [12] deals with A549. As to the kind of experiment: Cell cycle arrest in human A549 cells assessed as accumulation at S phase at 0.27 uM incubated for 24 hrs by propidium iodide staining based flow cytometry analysis (Rvb=27.61%). The class given is functional.
The subject of experiment [13] is A549. As to the kind of experiment: Cell cycle arrest in human A549 cells assessed as accumulation at G2 phase at 0.27 uM incubated for 24 hrs by propidium iodide staining based flow cytometry analysis (Rvb=18.01%). The class given is functional.
Experiment [14] deals with A549. As to the kind of experiment: Induction of apoptosis in human A549 cells assessed as necrotic cells at 0.2 uM incubated for 24 hrs by AnnexinV-FITC/propidium iodide staining-based flow cytometric analysis (reference value: 3.6%). It counts as functional.
In experiment [15] the test system is A549. In words: Induction of apoptosis in human A549 cells assessed as early apoptotic cells at 0.4 uM incubated for 24 hrs by AnnexinV-FITC/propidium iodide staining-based flow cytometric analysis (reference value: 4.1%). It counts as functional.
Experiment [16] relates to A549. In words: Induction of apoptosis in human A549 cells assessed as late apoptotic cells at 0.8 uM incubated for 24 hrs by AnnexinV-FITC/propidium iodide staining-based flow cytometric analysis (reference value: 4.2%). It counts as functional.
The test system of experiment [17] is A549. As to the kind of experiment: Induction of apoptosis in human A549 cells assessed as necrotic cells at 0.8 uM incubated for 24 hrs by AnnexinV-FITC/propidium iodide staining-based flow cytometric analysis (reference value: 3.6%). It counts as functional.
Experiment [18] relates to A549. In words: Induction of apoptosis in human A549 cells assessed as late apoptotic cells at 1.2 uM incubated for 24 hrs by AnnexinV-FITC/propidium iodide staining-based flow cytometric analysis (reference value: 4.2%). It counts as functional.
Experiment [19] deals with A549. In words: cells. The settings on record: Homo sapiens, A549, 48 h.
For a further experiment, the system named is MCF7. In words: cells. To be noted: Homo sapiens, MCF7, 48 h.

Calls of active or inactive are those of the source. The rule behind the calls is not given here.

`COC(=O)/C=C\c1ccc(OC)c(OCCOC(=O)[C@]2(C)CC[C@]3(C)CC[C@]4(C)C5=CC=C6C(=CC(=O)C(O)=C6C)[C@]5(C)CC[C@@]4(C)[C@@H]3C2)c1`: the Activity result with A549 [1] is “Dose-dependent effect”; in the experiment with A549 [2] it was “Dose-dependent effect”; in the experiment with A549 [5], 52.22%; in the experiment with A549 [6], 12.14%; in the experiment with A549 [7] it was 10.44%; in the experiment on A549 [8] it was 35.25%. For the same compound, the Activity with A549 [9] is given as 15.7%; with A549 [10], 61.95%; in the experiment with A549 [11], 68.04%; in the experiment with A549 [12], 23.55%; in the experiment on A549 [13], 9.56%; with A549 [14], 4.4%. Moreover, the Activity is 10% in the experiment on A549 [15], 43.3% in the experiment with A549 [16], 6.9% with A549 [17] and 52.2% in the experiment on A549 [18]. The figures for the half-maximal inhibitory concentration (IC50) with HepG2, in the experiment with A549 [19] and with MCF7 were 260 nM, 150 nM and 170 nM, respectively. Further, the result in the experiment on A549 [3] and with A549 [4] was Active.
